Assays:
[1] = test system: SK-CO-1 cells; assay: SK-CO-1 CTG proliferation assay (120 h) (CRC, G12V); format: cell-based; conditions: Homo sapiens; SK-CO-1 cells (CRC, G12V), CTG 120 h
Summary of the method: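 Compound exposure lasted 120 h in KRAS G12V SK-CO-1 cells seeded overnight at 500 cells/well in 10% FCS EMEM. CellTiter-Glo RLU normalised to DMSO wells gave percent viability, and a four-parameter model fit yielded IC50.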

[2] = Caco-2 assay (permeability PappAB, PappBA, efflux ratio); format: in vitro ADME; conditions: human, Caco-2, 10 μM test compound, pH 7.4; for Papp A→B at 90 min, 10 μM: apical to basolateral; for efflux ratio at 90 min, 10 μM: efflux ratio PappBA/PappAB, read-out: Caco ER
Summary of the method: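 Bidirectional permeability (apical-to-basolateral and reverse) through polarized Caco-2 monolayers, BSA 0.25% on each side, 37 °C. Donor and receiver sampled at 0-90 min after 25-30 min preincubation, analysed by HPLC/MS/MS. Apparent permeabilities derived from transfer rate normalised to area and t=0 donor concentration; ER taken as PappBA over PappAB.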

SMILES	IC50 [1]	Papp A→B at 90 min, 10 μM [2]	efflux ratio at 90 min, 10 μM [2]
C[C@H](Oc1cc(N2CCN[C@@H](C)C2)nc(-c2noc3c2CCC[C@@]32CCCc3sc(N)c(C#N)c32)n1)[C@@H]1CCCN1C [II-162]	980 nM	0.3 ×10⁻⁶ cm/s	57.6
C[C@H](Oc1cc(-n2cc3c(n2)CNC3)nc(-c2noc3c2CCC[C@@]32CCCc3sc(N)c(C#N)c32)n1)[C@@H]1CCCN1C [II-168]	154 nM	1 ×10⁻⁶ cm/s	39.5
C[C@H](Oc1cc(C2=CCNCC2)nc(-c2noc3c2CCC[C@@]32CCCc3sc(N)c(C#N)c32)n1)[C@@H]1CCCN1C [II-164]	287 nM	0.1 ×10⁻⁶ cm/s	138
C[C@H](Oc1nc(-c2noc3c2CCC[C@@]32CCCc3sc(N)c(C#N)c32)nc(N2CCNC3(CC3)C2)c1Cl)[C@@H]1C[C@@H](F)CN1C [II-156]	390 nM		1.8
C[C@H](Oc1cc(N2CCN(C)C3(CCOC3)C2)nc(-c2noc3c2CCC[C@@]32CCCc3sc(N)c(C#N)c32)n1)[C@@H]1C[C@@H](F)CN1C (stereo partly drawn) [II-151]	1360 nM		2
C[C@H](Oc1cc(-n2ccc(C3(O)COC3)n2)nc(-c2noc3c2CCC[C@@]32CCCc3sc(N)c(C#N)c32)n1)[C@@H]1CCCN1C [II-189]	45 nM	7.9 ×10⁻⁶ cm/s	5.8
C[C@H](Oc1cc(-n2cc(-c3cncs3)nn2)nc(-c2noc3c2CCC[C@@]32CCCc3sc(N)c(C#N)c32)n1)[C@@H]1CCCN1C [II-125]	121 nM		1.3
C[C@H](O)Cn1ncc(-c2cc(O[C@@H](C)[C@@H]3CCCN3C)nc(-c3noc4c3CCC[C@@]43CCCc4sc(N)c(C#N)c43)n2)n1 [II-134]	225 nM	4 ×10⁻⁶ cm/s	8
C[C@H](Oc1cc(-n2cc3ccn([C@H]4CCOC4)c(=O)c3n2)nc(-c2noc3c2CCC[C@@]32CCCc3sc(N)c(C#N)c32)n1)[C@@H]1CCCN1C [II-202]	6 nM	4.4 ×10⁻⁶ cm/s	3.6
CO[C@@H]1C[C@@H]([C@H](C)Oc2cc(N3CCN(C)C4(CC4)C3)nc(-c3noc4c3CCC[C@@]43CCCc4sc(N)c(C#N)c43)n2)N(C)C1 [II-152]	955 nM	3.1 ×10⁻⁶ cm/s	16.8
C[C@H](Oc1cc(N2CCN(C)C3(CC3)C2)nc(-c2noc3c2CCC[C@@]32CCCc3sc(N)c(C#N)c32)n1)[C@@H]1C[C@@H](F)CN1C [II-149]	1980 nM		1.2
C[C@H](Oc1cc(N2CCOC2=O)nc(-c2noc3c2CCC[C@@]32CCCc3sc(N)c(C#N)c32)n1)[C@@H]1CCCN1C [II-143]	9 nM	4.5 ×10⁻⁶ cm/s	7.3
C[C@H](Oc1cc(N2CCNC[C@]23CCOC3)nc(-c2onc3c2CCC[C@@]32CCCc3sc(N)c(C#N)c32)n1)[C@@H]1CCCN1C [I-12]	710 nM	0.5 ×10⁻⁶ cm/s	70.2
C[C@H](Oc1nc(-c2noc3c2CCC[C@@]32CCCc3sc(N)c(C#N)c32)nc(N2CCNC3(CC3)C2)c1F)[C@@H]1C[C@@H](F)CN1C [II-155]	263 nM		2.9
C[C@@H]1CN(c2nc(-c3noc4c3CCC[C@@]43CCCc4sc(N)c(C#N)c43)nc(O[C@@H](C)[C@@H]3C[C@@H](F)CN3C)c2F)CC2(CC2)N1 [II-158]	374 nM		0.4
C[C@H](NC(=O)c1ccn(-c2cc(O[C@@H](C)[C@@H]3CCCN3C)nc(-c3noc4c3CCC[C@@]43CCCc4sc(N)c(C#N)c43)n2)n1)c1ccccn1 [II-191]	3 nM		2.5
C[C@H](Oc1cc(N2CCNC3(COC3)C2)nc(-c2noc3c2CCC[C@@]32CCCc3sc(N)c(C#N)c32)n1)[C@@H]1C[C@@H](F)CN1C [II-150]	325 nM	2.5 ×10⁻⁶ cm/s	11.6
C[C@H](Oc1cc(-n2ccc(C(=O)N[C@@H]3CCOC3)n2)nc(-c2noc3c2CCC[C@@]32CCCc3sc(N)c(C#N)c32)n1)[C@@H]1CCCN1C [II-192]	4 nM	10 ×10⁻⁶ cm/s	2.5
C[C@H](Oc1cc(N2C[C@H](C)N(C)[C@@H](C)C2)nc(-c2noc3c2CCC[C@@]32CCCc3sc(N)c(C#N)c32)n1)[C@@H]1CCCN1C [II-173]	805 nM	8.7 ×10⁻⁶ cm/s	19.9

Results, then the compound that gave them:

IC50 [1]	Papp A→B at 90 min, 10 μM [2]	efflux ratio at 90 min, 10 μM [2]	SMILES
339 nM		0.7	C[C@H](Oc1nc(-c2noc3c2CCC[C@@]32CCCc3sc(N)c(C#N)c32)nc(N2C[C@H](C)NC3(CC3)C2)c1F)[C@@H]1C[C@@H](F)CN1C [II-157]
121 nM	3.3 ×10⁻⁶ cm/s	7	CC(C)N1CCCN(c2cc(-c3ccn(C)n3)nc(-c3noc4c3CCC[C@@]43CCCc4sc(N)c(C#N)c43)n2)[C@@H](C)C1 [II-170]
316 nM		9.6	CC(C)N1CCCN(c2cc(-n3ccnc3)nc(-c3noc4c3CCC[C@@]43CCCc4sc(N)c(C#N)c43)n2)[C@@H](C)C1 [II-169]
4 nM		2.9	C[C@H](Oc1cc(-n2ccc(-c3cn([C@H]4CCOC4)nn3)n2)nc(-c2noc3c2CCC[C@@]32CCCc3sc(N)c(C#N)c32)n1)[C@@H]1CCCN1C [II-212]
71 nM		0.8	C[C@H](Oc1cc(-n2cncc3ccnc2-3)nc(-c2onc3c2CCC[C@@]32CCCc3sc(N)c(C#N)c32)n1)[C@@H]1CCCN1C [I-14]
236 nM	17 ×10⁻⁶ cm/s	1.2	C[C@H](Oc1cc(-n2cncn2)nc(-c2onc3c2CCC[C@@]32CCCc3sc(N)c(C#N)c32)n1)[C@@H]1CCCN1C [I-18]
4 nM	6.2 ×10⁻⁶ cm/s	4.5	COCCNC(=O)c1ccn(-c2cc(O[C@@H](C)[C@@H]3CCCN3C)nc(-c3noc4c3CCC[C@@]43CCCc4sc(N)c(C#N)c43)n2)n1 [II-195]
529 nM		2.5	C[C@H](Oc1cc(N2CCNC3(CC3)C2)nc(-c2noc3c2CCC[C@@]32CCCc3sc(N)c(C#N)c32)n1)[C@@H]1C[C@@H](F)CN1C [II-165]
90 nM	5.9 ×10⁻⁶ cm/s	4.1	C[C@H](Oc1cc(-c2ccn([C@H]3CCOC3)n2)nc(-c2noc3c2CCC[C@@]32CCCc3sc(N)c(C#N)c32)n1)[C@@H]1CCCN1C [II-127]
7 nM		2.6	C[C@H](Oc1cc(-n2ccc(-c3cn(CC4(C)COC4)nn3)n2)nc(-c2noc3c2CCC[C@@]32CCCc3sc(N)c(C#N)c32)n1)[C@@H]1CCCN1C [II-213]
11 nM	11 ×10⁻⁶ cm/s	2.6	C[C@H](Oc1cc(-n2ccc(C(=O)N(C)C3COC3)n2)nc(-c2noc3c2CCC[C@@]32CCCc3sc(N)c(C#N)c32)n1)[C@@H]1CCCN1C [II-194]
66 nM	4.2 ×10⁻⁶ cm/s	5.2	C[C@H](Oc1cc(-c2ccn(C[C@H]3CCOC3)n2)nc(-c2noc3c2CCC[C@@]32CCCc3sc(N)c(C#N)c32)n1)[C@@H]1CCCN1C [II-129]
872 nM	1.2 ×10⁻⁶ cm/s	30	CO[C@@H]1C[C@@H]([C@H](C)Oc2cc(N3CCN(C)C4(COC4)C3)nc(-c3noc4c3CCC[C@@]43CCCc4sc(N)c(C#N)c43)n2)N(C)C1 [II-153]
779 nM	12 ×10⁻⁶ cm/s	3.3	C[C@H](Oc1cc(N2CCN(C)C3(COC3)C2)nc(-c2noc3c2CCC[C@@]32CCCc3sc(N)c(C#N)c32)n1)[C@@H]1C[C@@H](F)CN1C [II-148]
11 nM		16.8	C[C@H](Oc1cc(-n2cc3ccn(C4CCOCC4)c(=O)c3n2)nc(-c2noc3c2CCC[C@@]32CCCc3sc(N)c(C#N)c32)n1)[C@@H]1CCCN1C [II-206]
4 nM		2.2	C[C@H](Oc1cc(-n2ccc(-c3cn([C@@H]4CCOC4)nn3)n2)nc(-c2noc3c2CCC[C@@]32CCCc3sc(N)c(C#N)c32)n1)[C@@H]1CCCN1C [II-211]

Source: US20240174690A1, “ANNULATED 2-AMINO-3-CYANO THIOPHENES AND DERIVATIVES FOR THE TREATMENT OF CANCER” (BOEHRINGER INGELHEIM INTERNATIONAL GMBH, priority 2021, published 2024)
